From patent US10449206B2, “Indolealkylamino-withasteroid conjugates and method of use” (Natreon, Inc., priority 2011, dated 2019)
Where a name gives a salt, the structure may show the parent alone. Marks after values point to notes of the source that are not given here.

Key:
[1] = system: Scopolamine-induced amnesic mice; assay: Scopolamine hydrobromide-induced amnesia, transfer latency on elevated plus maze; details: for Transfer Latency, Day 8: learning trial; for % Decrease in Transfer Latency, Mean ± SD: Table 16
Experimental: The elevated plus maze is used to measure the memory learning activity in mice; however, transfer latency, i.e., the time elapsed between the movement of the animal from an open to an enclosed arm was markedly shortened if the animal had previously experienced entering open and closed arms.
Retention was recorded after 24 hrs (9th day) and after an interval of one week (16th day).
Drug protocol. The animals were divided into 7 groups (Group I-VII) of eight animals in each group. Group I received vehicle (0.3% CMC) only and served as vehicle control. Groups II-VII were treated with the respective test drugs, as per the details mentioned in Table 1 below, for 16 days. […] Transfer Latency was recorded after 45 minutes of the drug administration on 8th day (learning trial) and 24 hrs (9th day) and one week (16th day) after learning trial.
Retention in elevated plus maze test was used to assess the memory functions in test animals. The plus maze consists of two open opposite arms, (50×10 cm) length×width, crossed with two enclosed arms of same dimensions with walls 40 cm high. The arms are connected with a central square, (10×10 cm) to give the apparatus a plus-sign appearance. The maze was kept elevated 50 cm above the floor in a dimly lit room. On day 8, mice were individually placed on far end of one of the open arms facing away from the center and transfer latency (TL) on day 8 was recorded. TL is the time taken by the mouse to move into any one of the covered arms with all its four legs. […] On day 9, the mice were again placed on the far end of the open arm and time taken by the mice to enter the enclosed arm, transfer latency (TL) day 9, was recorded. Similarly after an interval of one week, on day 16, the transfer latency (TL) day 16 was again recorded.
The retention scores were obtained for each animal by calculating percent decrease in latency period by the formula: % decrease in TL=(L1−L0/L0)×100
where, L0=initial transfer latency period in seconds, and L1=transfer latency after 24 hrs, or one week.

[2] = molecular target: acetylcholinesterase (AChE) (Homo sapiens, UniProt P22303); assay: In vitro acetylcholinesterase (AChE) activity assay, method of Ellman et al. with acetylthiocholine iodide as substrate; type: biochemical; details: for IC50: Mean ± SD of three replicates, synthetic conjugates, read-out: Acetylcholinesterase inhihitory activity IC50 (converted)
Experimental: The acetylcholinesterase (AChE) assay was performed by the method of Ellman et al., with minor modification, using acetylthiocholine Iodide as a substrate (G. L. Ellman, et al., “A new and rapid colorimetric determination of acetylcholinesterase activity,” Biochem. Pharmacol. (1961) 7: 88-95). Ellman's reaction mixture was made from a combination of 10 mM Acetylthiocholine iodide and 0.5 mM 5,5′-dithio-bis-(2-nitrobenzoic acid) in a 0.05 M sodium phosphate buffer (pH 7.2). The rates of hydrolysis by AChE were monitored spectrophotometrically using a 96-well microtiter plate reader. Each test sample (10 μl) and 0.05 M sodium phosphate buffer (30 μl) was mixed with the enzyme solution (10 μl). An Ellman's reaction mixture (50 μl) was further added to give a final volume of 100 μl, and the mixture was incubated at 37° C. for 30 min. Absorbance at 450 nm was recorded immediately after adding the Ellman's reaction mixture. Reading was repeated for 10 min at 2 min intervals to verify that the reaction occurred linearly. Blank reaction was measured by substituting saline for the enzyme (Y. K. Chung, et al., “Inhibitory effect of ursolic acid purified from Origanum majorana L. on the acetylcholinesterase,” Mol. Cells (2001) 11: 137-143).
The acetylcholinesterase (AChE) assay was performed by the method of Ellman et. al., with minor modification, using acetylthiocholine Iodide as a substrate (G. L. Ellman, et al., “A new and rapid colorimetric determination of acetylcholinesterase activity,” Biochem. Pharmacol. (1961) 7: 88-95). Ellman's reaction mixture was made from a combination of 10 mM Acetylthiocholine iodide and 0.5 mM 5,5′-dithio-bis-(2-nitrobenzoic acid) in a 0.05 M sodium phosphate buffer (pH 7.2). The rates of hydrolysis by AChE were monitored spectrophotometrically using a 96-well microtiter plate reader. Each test sample (10 μl) and 0.05 M sodium phosphate buffer (30 μl) was mixed with the enzyme solution (10 μl). An Ellman's reaction mixture (50 μl) was further added to give a final volume of 100 μl, and the mixture was incubated at 37° C. for 30 min. Absorbance at 450 nm was recorded immediately after adding the Ellman's reaction mixture. Reading was repeated for 10 min at 2 min intervals to verify that the reaction occurred linearly. Blank reaction was measured by substituting saline for the enzyme (Y. K. Chung, et al., “Inhibitory effect of ursolic acid purified from Origanum majorana L. on the acetylcholinesterase,” Mol. Cells (2001) 11: 137-143).

[3] = system: mice; assay: Open-field exploratory behavior test, anxiety paradigm; parameters: species or system Swiss Albino mice; details: mouse, in vivo
Experimental: Drug preparation and administration of doses.
Study design. The behavioral tests conducted with multiple seven-dose schedules. The mice were tested only once after the completion of the drug treatment schedule in the elevated plus maze and open field. The studies were carried out in a sound proof room to avoid disturbances to the animals during the behavioral studies. Exposure to a novel environment is associated with emotional disturbance and anxiety. […] Anxiety is also associated with augmented autonomic activity resulting in increased defecation and urination. All these effects are accentuated by anxiogenic drugs and attenuated by anxiolytics. Standard screening procedures such as open field method and elevated plus maze test were used to screen the anxiolytic effect of drugs in comparison with a standard drug, Diazepam.
Open-field exploratory behavior test. The open field exploratory apparatus is similar to that of Bronstein (P. M. Bronstein, “Open field behaviour of the rat as a function of age: cross sectional and longitudinal investigations,” J. Comp. Physiol. Psycol. (1972) 80: 335-341). It is made of plywood and consists of squares (61×61 cm) with high walls. […] The ratio between the number of times the animal crossed the central and the number of times the animal crossed the peripheral square is calculated.

[4] = system: brain tissue Malondialdehyde (MDA); type: in vivo, Swiss Albino mice; details: day 16; test sample p.o. (50/20/30/1/1 mg/kg) + SH 0.5 mg/kg i.p.; mean ± SEM, n=4
Description: Estimation of lipid peroxidation.
Alzheimer's disease (AD) is an irreversible neurodegenerative disorder having symptoms including confusion, memory loss, and mood swings. The beta-amyloid peptide (BAP), with 39-42 amino acid residues, plays a significant role in the development of AD. Although there is no cure for AD, it can be managed with available drugs, but only to a small degree in a small subset of patients. […] In this study, the lipid peroxidation levels in brains of different treatment groups were measured by estimating the brain tissue Malondialdehyde (MDA) concentration. 5.

[5] = Example 7B, synthetic conjugates 1 and 5 mg/kg p.o. 16 days
[6] = Table 15, conjugate 1 mg/kg p.o. + SH 0.5 mg/kg i.p., mean ± SD, n=8
[7] = Table 15, conjugate 1 mg/kg p.o., mean ± SD, n=8
[8] = Table 15, conjugate 5 mg/kg p.o. + SH 0.5 mg/kg i.p., mean ± SD, n=8
[9] = Table 15, conjugate 5 mg/kg p.o., mean ± SD, n=8
[10] = after 24 h (day 9), conjugate 1 mg/kg p.o. + SH 0.5 mg/kg i.p., n=8
[11] = after 24 h (day 9), conjugate 5 mg/kg p.o. + SH 0.5 mg/kg i.p., n=8
[12] = Table 17, after 1 week (day 16), conjugate 1 mg/kg p.o. + SH 0.5 mg/kg i.p., n=8
[13] = Table 17, after 1 week (day 16), conjugate 5 mg/kg p.o. + SH 0.5 mg/kg i.p., n=8
[14] = Table 2, SH 0.5 mg/kg i.p. alone, mean ± SEM
[15] = Table 15, SH 0.5 mg/kg i.p. alone, mean ± SD

acetylcholinesterase (AChE), sequence (P22303 32-614, species assumed): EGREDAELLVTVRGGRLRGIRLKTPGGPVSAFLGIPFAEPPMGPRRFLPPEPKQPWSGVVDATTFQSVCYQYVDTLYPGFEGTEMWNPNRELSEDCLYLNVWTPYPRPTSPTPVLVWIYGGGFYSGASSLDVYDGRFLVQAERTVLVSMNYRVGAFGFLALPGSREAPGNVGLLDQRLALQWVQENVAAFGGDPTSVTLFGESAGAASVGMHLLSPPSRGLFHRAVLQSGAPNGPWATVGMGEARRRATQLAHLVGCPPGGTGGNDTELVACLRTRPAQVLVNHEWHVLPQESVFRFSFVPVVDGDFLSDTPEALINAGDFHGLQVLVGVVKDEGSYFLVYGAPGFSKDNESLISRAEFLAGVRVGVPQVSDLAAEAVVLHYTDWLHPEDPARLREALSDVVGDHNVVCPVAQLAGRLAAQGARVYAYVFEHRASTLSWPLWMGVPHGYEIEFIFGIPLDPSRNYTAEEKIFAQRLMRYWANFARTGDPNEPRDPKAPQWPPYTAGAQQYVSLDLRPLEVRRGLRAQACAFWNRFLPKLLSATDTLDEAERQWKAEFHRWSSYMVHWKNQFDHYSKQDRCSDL

Structure (SMILES) | effect on Scopolamine-induced amnesia (in words) [1, 5] | Transfer Latency, Day 9 [1, 6] | Transfer Latency, Day 16 [1, 6] | Transfer Latency, Day 8 [1, 7] | Transfer Latency, Day 9 [1, 8] | Transfer Latency, Day 16 [1, 8] | Transfer Latency, Day 8 [1, 9] | % Decrease in Transfer Latency, Mean ± SD [1, 10] | % Decrease in Transfer Latency, Mean ± SD [1, 11] | % Decrease in Transfer Latency, Mean ± SEM [1, 12] | % Decrease in Transfer Latency, Mean ± SEM [1, 13] | in vitro acetylcholinesterase inhibitory activity (in words) [2] | IC50 [2] | also measured
COc1ccc2[nH]cc(CCNC3CC(=O)[C@]4(C)[C@H]5CC[C@]6(C)[C@@H]([C@H](C)[C@H]7CC(C)=C(CO)C(=O)O7)CC[C@H]6[C@@H]5C[C@H]5O[C@]54[C@H]3O)c2c1 (stereo partly shown) | significantly attenuated and reversed the Scopolamine-induced amnesia | 76.63 ± 33.95 s | 43.13 ± 12.43 s | 139.1 ± 25.05 s | 37.25 ± 4.43^bb s | 18.00 ± 4.14^bbb s | 141.00 ± 35.66 s | 45.62 ± 16.51% | 72.18 ± 6.60. % | 69.13 ± 5.38% | 85.79 ± 9.92^bb % | good dose-dependent in-vitro acetylcholinesterase inhibitory activity | 149 µM | –
CN1[C@@H]2C[C@@H](OC(=O)[C@H](CO)c3ccccc3)C[C@H]1[C@@H]1O[C@@H]12 [SH, Scopolamine Hydrobromide, reference compound] | – | – | – | – | – | – | – | – | – | – | – | – | – | induction of amnesia (in words) ([1]; SH 0.5 mg/kg i.p. alone vs vehicle): produced amnesia in animals; Transfer Latency, Day 8 ([1]; Table 2, SH 0.5 mg/kg i.p. alone group, mean ± SEM): 171.50 ± 16.08 s; Transfer Latency, Day 9 [1, 14]: 143.90 ± 15.30 s; Transfer Latency, Day 16 [1, 14]: 133.10 ± 15.95 s; % Decrease in Transfer Latency, Mean ± SEM ([1]; Table 3, after 24 h (day 9), SH 0.5 mg/kg i.p. alone): 14.91 ± 5.75%; % Decrease in Transfer Latency, Mean ± SEM ([1]; Table 4, after 1 week (day 16), SH 0.5 mg/kg i.p. alone): 22.11 ± 5.03%; Transfer Latency, Day 8 ([1]; Table 15, SH 0.5 mg/kg i.p. alone group, mean ± SD): 160.00 ± 66.68 s; Transfer Latency, Day 9 [1, 15]: 106.00 ± 42.81^aa s; Transfer Latency, Day 16 [1, 15]: 48.17 ± 12.73 ^aaa s; % Decrease in Transfer Latency, Mean ± SD ([1]; after 24 h (day 9), SH 0.5 mg/kg i.p. alone): 29.86 ± 17.79%; % Decrease in Transfer Latency, Mean ± SEM ([1]; Table 17, after 1 week (day 16), SH 0.5 mg/kg i.p. alone): 63.54 ± 18.87^aa %
CC1=C(CO)C(=O)O[C@@H]([C@@H](C)[C@H]2CC[C@H]3[C@@H]4C[C@H]5O[C@]56[C@@H](O)C(NCCc5c[nH]c7ccccc57)CC(=O)[C@]6(C)[C@H]4CC[C@]23C)C1 (stereo partly shown) [Tryptamino-withaferin-A conjugate] | significantly attenuated and reversed the Scopolamine-induced amnesia | 56.17 ± 21.99^b s | 16.50 ± 9.52^bbb s | 178.00 ± 117.90 s | 51.67 ± 15.28 ^b s | 15.17 ± 10.09^bbb s | 159.00 ± 126.20 s | 54.97 ± 27.54% | 59.93 ± 13.31% | 88.10 ± 6.17^b % | 85.72 ± 11.96^bb % | good dose-dependent in-vitro acetylcholinesterase inhibitory activity | 56.1 µM | –
CC1=C(CO)C(=O)O[C@@H]([C@@H](C)[C@H]2CC[C@H]3[C@@H]4C[C@H]5O[C@]56[C@@H](O)C=CC(=O)[C@]6(C)[C@H]4CC[C@]23C)C1 [Withaferin-A, Withaferin A, reference compound] | – | – | – | – | – | – | – | – | – | – | – | only feeble inhibitory activity | – | anxiolytic effect in open field test (in words) [3]: did not show any anxiolytic effect; MDA Content, brain tissue [4]: 4.77 ± 0.07 nmol/mL; effect on Scopolamine-induced amnesia (in words) ([1]; Example 4A, WS extract and fractions p.o. 16 days): did not protect from or attenuate the Scopolamine-induced amnesia; Transfer Latency, Day 9 ([1]; Table 2, 24 h after SH 0.5 mg/kg i.p., test sample p.o. (50/20/30/1/1 mg/kg), mean ± SEM, n=8): 124.00 ± 13.27 s; Transfer Latency, Day 8 ([1]; Table 2, test sample p.o. daily (WS-74 50, Ace Sol 20, Ace Insol 30, IAEF-A 1, Withaferin-A 1 mg/kg), mean ± SEM, n=8): 180.40 ± 8.04 s; Transfer Latency, Day 16 ([1]; Table 2, one week after SH 0.5 mg/kg i.p., test sample p.o. 16 days (50/20/30/1/1 mg/kg), mean ± SEM, n=8): 114.90 ± 13.10 s; % Decrease in Transfer Latency, Mean ± SEM ([1]; Table 3, after 24 h (day 9), test sample p.o. (50/20/30/1/1 mg/kg) + SH 0.5 mg/kg i.p., n=8): 29.28 ± 9.43%; % Decrease in Transfer Latency, Mean ± SEM ([1]; Table 4, after 1 week (day 16), test sample p.o. (50/20/30/1/1 mg/kg) + SH 0.5 mg/kg i.p., n=8): 34.33 ± 9.30%
